PubChem BioAssay (NCI)
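Compound exposure: 48 hours, 5 concentrations, 96-well plates. Here, GI50 denotes the concentration required for 50% inhibition of growth. At the TGI there is no net growth.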

Tests used:
Experiment in all cases: inhibition of tumour cell growth, NCI panel, 48 h
MALME-3M melanoma = tested on: MALME-3M melanoma
HCC-2998 colon = tested on: HCC-2998 colon
OVCAR-5 ovarian = tested on: OVCAR-5 ovarian
SNB-19 CNS = tested on: SNB-19 CNS
LOX IMVI melanoma = tested on: LOX IMVI melanoma
TK-10 renal = tested on: TK-10 renal
HT29 colon = tested on: HT29 colon
IGROV1 ovarian = tested on: IGROV1 ovarian
M14 melanoma = tested on: M14 melanoma
MDA-MB-435 = tested on: MDA-MB-435

SMILES	GI50 (MALME-3M melanoma)	TGI (MALME-3M melanoma)	GI50 (HCC-2998 colon)	TGI (HCC-2998 colon)	GI50 (OVCAR-5 ovarian)	TGI (OVCAR-5 ovarian)	GI50 (SNB-19 CNS)	TGI (SNB-19 CNS)	GI50 (LOX IMVI melanoma)	TGI (LOX IMVI melanoma)	GI50 (TK-10 renal)	TGI (TK-10 renal)	GI50 (HT29 colon)	TGI (HT29 colon)	GI50 (IGROV1 ovarian)	TGI (IGROV1 ovarian)	GI50 (M14 melanoma)	TGI (M14 melanoma)	GI50 (MDA-MB-435)	TGI (MDA-MB-435)
COc1cccc(/C=N/[N-]C(=O)c2ccncc2)c1[O-].[Cu+2].[OH3+]	> 100 µM	> 100 µM	> 100 µM	> 100 µM	> 100 µM	> 100 µM	> 100 µM	> 100 µM	> 100 µM	> 100 µM	> 100 µM	> 100 µM	43.8 µM	> 100 µM	38.7 µM	> 100 µM	61.3 µM	> 100 µM		
COc1cc(C2c3cc4c(cc3C(O)C(CO)C2CO)OCO4)cc(OC)c1OC (stereo not given)			1.78 µM	> 100 µM	5.69 µM	> 100 µM	2.6 µM	> 100 µM	0.656 µM	> 100 µM	> 23.2 µM	> 100 µM	0.422 µM		0.551 µM	> 25.9 µM	0.706 µM	> 100 µM	0.197 µM	0.549 µM
O=C1CC(C[C@H](O)C2CCCCC2O)CC(=O)N1Cc1ccccc1 (stereo not given in full)		> 100 µM		> 100 µM		> 100 µM		> 100 µM		> 100 µM		> 100 µM		> 100 µM		> 100 µM		> 100 µM		
CCOC(=O)C(=Cc1cccc(Cl)c1)C(=O)OCC			1.79 µM	3.24 µM	1.8 µM	3.54 µM	2.37 µM	6.66 µM	1.65 µM	3.12 µM	2.46 µM	6.08 µM	2.39 µM	5.57 µM	2.4 µM	7.85 µM	2 µM	4.56 µM	2.07 µM	5.04 µM
O=C1c2ccccc2C2(O)c3cc4ccccc4cc3OC12O (stereo not given)		> 100 µM		> 100 µM		> 100 µM		> 100 µM		> 100 µM		> 100 µM		> 100 µM		> 100 µM		> 100 µM		
CC(=O)n1c2c(c(=O)n1-c1ccccc1)S(=O)CCC2 (stereo not given)		> 100 µM		> 100 µM		> 100 µM		> 100 µM		> 100 µM		> 100 µM		> 100 µM		> 100 µM		> 100 µM		
CC1=C2CCCC2=C/C(=N/Nc2ccc([N+](=O)[O-])cc2[N+](=O)[O-])CC1		> 100 µM				> 100 µM		> 100 µM		> 100 µM		> 100 µM		> 100 µM		> 100 µM		> 100 µM		
O=[N+]([O-])c1ccc(-n2nnc(C3=NCCN3)c2-c2ccc(Cl)cc2)cc1		> 100 µM		> 100 µM		> 100 µM		> 100 µM		> 100 µM		> 100 µM		> 100 µM		> 100 µM		> 100 µM		
O=c1n(-c2ccccc2)c(=O)n2n1C1C=CC2C2C(C1)C2(Cl)Cl (stereo not given)		> 100 µM		> 100 µM		> 100 µM		> 100 µM		> 100 µM		> 100 µM				> 100 µM		> 100 µM		
O=C(O)CSc1n[nH]c(-c2ccccc2)n1		> 100 µM		> 100 µM		> 100 µM		> 100 µM		> 100 µM		> 100 µM		> 100 µM		> 100 µM		> 100 µM		
COC1[C@@H](OC(C)=O)[C@@H](NC(=O)C(Cl)(Cl)Cl)C(I)[C@@H](N2C(=O)c3ccccc3C2=O)[C@H]1OC (stereo not given in full)						> 100 µM		> 100 µM		> 100 µM				> 100 µM		> 100 µM		> 100 µM		
CCc1c(OC(C)=O)c2c(NC3OC(COC(C)=O)C(OC(C)=O)C(OC(C)=O)C3OC(C)=O)nc(OC)nc2oc1=O (stereo not given)		> 100 µM		> 100 µM		> 100 µM		> 100 µM		> 100 µM		> 100 µM		> 100 µM		> 100 µM		> 100 µM		
Cc1c(Cl)cccc1N1C(=O)C(Cl)=C(Cl)C1=O		> 100 µM		> 100 µM		> 100 µM		> 100 µM		> 100 µM		> 100 µM		> 100 µM		> 100 µM		> 100 µM		
Cc1ccc(Cn2c(C)nc3c2C(=O)c2ccccc2C3=O)cc1		34.3 µM		> 100 µM				49.8 µM		6.18 µM		80.8 µM		> 100 µM		> 100 µM		> 100 µM		
CCC1C2C=CC(CC2)N1S(=O)(=O)c1ccc(C)cc1 (stereo not given)		73.4 µM				79 µM		> 100 µM		31.5 µM				42.1 µM				> 100 µM		
O=C(N/N=C1/C(=O)N(c2ccc(Cl)cc2Cl)C(=O)C(=O)C1c1nc2ccccc2o1)c1ccccc1O (stereo not given)		78.6 µM				> 100 µM		> 100 µM				> 100 µM		> 100 µM		> 100 µM		76.2 µM		
COc1ccc(/C(=N\NC(=O)C(N)=O)C(c2ccc(OC)cc2)C2(O)C(=O)Nc3c(Cl)cccc32)cc1 (stereo not given)		> 100 µM		> 100 µM		> 100 µM		> 100 µM		> 100 µM		> 100 µM		> 100 µM		> 100 µM		> 100 µM		
CCOC(=O)C(C)(C)Oc1ccc2c(C)c(-c3ccc(Cl)cc3)c(=O)oc2c1		> 100 µM		> 100 µM				> 100 µM		> 100 µM		> 100 µM		62.7 µM		> 100 µM		> 100 µM		
CC(=O)O[C@H]1CCC2[C@@H]3CCC4=C(O)c5nocc5C[C@]4(C)C3CC[C@@]21C (stereo not given in full)		> 100 µM				> 100 µM		> 100 µM		> 100 µM		> 100 µM		> 100 µM		> 100 µM		> 100 µM		
O=C(NC(=O)c1cn(CCNCCO)c(=O)[nH]c1=O)OCc1ccccc1		> 100 µM				> 100 µM				> 100 µM		> 100 µM		> 100 µM		> 100 µM		> 100 µM		
COc1ccc(-c2cc(-c3ccccc3)c(C#N)c(=O)n2C2OC(CO)C(O)C(O)C2O)cc1 (stereo not given)		> 100 µM		> 100 µM		> 100 µM		> 100 µM		> 100 µM		> 100 µM		> 100 µM		> 100 µM		> 100 µM		
